ChEMBL document CHEMBL1201862, “PubChem BioAssay data set” (2004)
The source made the active and inactive calls.

How the values were obtained:
Bcl-2-related protein A1 [1] = target: T1, Bcl-2-related protein A1 (Mus musculus, UniProt Q07440); assay: small-molecule antagonists of Bfl-1/BH3 interaction – biochemical, TR-FRET, mouse Bfl-1, confirmation (AID 621);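 also: TR-FRET binding of GST-Bfl-1 to FITC-labelled Bid peptide via terbium antibody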
T1 sequence (Q07440 whole entry): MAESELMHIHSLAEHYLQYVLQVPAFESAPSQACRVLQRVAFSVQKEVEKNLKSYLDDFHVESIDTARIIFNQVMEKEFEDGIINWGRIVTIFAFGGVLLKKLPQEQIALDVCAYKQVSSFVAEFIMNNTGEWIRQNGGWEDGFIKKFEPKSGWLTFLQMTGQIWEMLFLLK

Bcl-2-related protein A1 [2] = target: T1, Bcl-2-related protein A1; assay: displacement of Bid BH3 peptide from Bfl-1 – biochemical, fluorescence polarization, FITC-Bid, mouse, primary screen (AID 432)
[3] = target: Mitogen-activated protein kinase 10 (Homo sapiens, UniProt P53779); assay: Dose response biochemical screening assay for inhibitors of c-Jun N-Terminal Kinase 3 (JNK3). [Related pubchem assays: 746 ]
H4 = assay: Luminescence Cell-Based Dose Response HTS to Identify Activators of 5'UTR Stem-Loop Driven Prion Protein mRNA Translation in H4 Neuroglioblastoma Cells. [Related pubchem assays: 1829 (Project Summary), 1814 (Primary HTS)]; format: functional; settings: Homo sapiens
[4] = Luminescence Cell-Based Dose Response HTS to Identify Activators of Luciferase Translation or Activity in H4 […] Cells. [Related pubchem assays: 1829 (Project Summary), 1814 (Primary HTS)]; format: functional
[5] = Luminescence Cell-Based Dose Confirmation HTS to Identify Activators of 5'UTR Stem-Loop Driven Alpha-Synuclein mRNA Translation in H4 Neuroglioblastoma Cells. [Related pubchem assays: 1829 (Project Summary), 1814 (Primary HTS)]; format: functional
[6] = target: DNA dC->dU-editing enzyme APOBEC-3A (Homo sapiens, UniProt P31941); assay: Dose Response confirmation of small molecule APOBEC3A DNA Deaminase Inhibitors via a fluorescence-based single-stranded DNA deaminase assay. [Related pubchem assays (depositor defined):AID493011, AID493024]; format: functional
[7] = target: DNA dC->dU-editing enzyme APOBEC-3G (Homo sapiens, UniProt Q9HC16); format: functional;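 also: Dose-response counterscreen measuring inhibition of APOBEC3G DNA deaminase activity, run while confirming APOBEC3A inhibitors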
Bcl-2-like protein 10 = target: T2, Bcl-2-like protein 10 (Homo sapiens, UniProt Q9HD36); assay: Bcl-B/TR3 peptide binding disruption – biochemical, fluorescence polarization, FITC-TR3 peptide, selectivity assay for Bfl-1 inhibitor project, primary screen (AID 748);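 also: fluorescence polarization from a fluorescein-labelled TR3 peptide binding purified Bcl-B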
T2 sequence (Q9HD36 whole entry): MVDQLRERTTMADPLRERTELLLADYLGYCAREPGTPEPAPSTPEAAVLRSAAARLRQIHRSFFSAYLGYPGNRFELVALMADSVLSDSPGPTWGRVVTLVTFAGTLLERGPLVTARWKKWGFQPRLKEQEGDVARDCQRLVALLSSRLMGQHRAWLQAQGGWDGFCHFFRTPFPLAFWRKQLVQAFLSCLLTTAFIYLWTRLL

14-3-3 protein gamma = 14-3-3 protein gamma (Homo sapiens, UniProt P61981); assay: modulators of 14-3-3 gamma client binding – dose response (AID 711); format: functional
[8] = target: E3 ubiquitin-protein ligase UHRF1 (Homo sapiens, UniProt Q96T88); assay: Counterscreen for inhibitors of 5-meCpG-binding domain protein 2 (MBD2): TRFRET-based biochemical high throughput dose response assay to identify inhibitors of binding of ubiquitin-like with PHD and ring finger domains 1 (UHRF1) to methylated oligonucleotide.
Estrogen receptor beta [9] = target: T3, Estrogen receptor beta (Homo sapiens, UniProt Q92731);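 also: recombinant ER-beta bound to coactivator SRC1 peptide in presence of estradiol agonist; inhibitors block coactivator peptide binding and lower the FRET signal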
Estrogen receptor = target: T4, Estrogen receptor (Homo sapiens, UniProt P03372);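 also: potency for inhibiting coactivator peptide recruitment to the receptor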
T4 sequence (P03372 whole entry): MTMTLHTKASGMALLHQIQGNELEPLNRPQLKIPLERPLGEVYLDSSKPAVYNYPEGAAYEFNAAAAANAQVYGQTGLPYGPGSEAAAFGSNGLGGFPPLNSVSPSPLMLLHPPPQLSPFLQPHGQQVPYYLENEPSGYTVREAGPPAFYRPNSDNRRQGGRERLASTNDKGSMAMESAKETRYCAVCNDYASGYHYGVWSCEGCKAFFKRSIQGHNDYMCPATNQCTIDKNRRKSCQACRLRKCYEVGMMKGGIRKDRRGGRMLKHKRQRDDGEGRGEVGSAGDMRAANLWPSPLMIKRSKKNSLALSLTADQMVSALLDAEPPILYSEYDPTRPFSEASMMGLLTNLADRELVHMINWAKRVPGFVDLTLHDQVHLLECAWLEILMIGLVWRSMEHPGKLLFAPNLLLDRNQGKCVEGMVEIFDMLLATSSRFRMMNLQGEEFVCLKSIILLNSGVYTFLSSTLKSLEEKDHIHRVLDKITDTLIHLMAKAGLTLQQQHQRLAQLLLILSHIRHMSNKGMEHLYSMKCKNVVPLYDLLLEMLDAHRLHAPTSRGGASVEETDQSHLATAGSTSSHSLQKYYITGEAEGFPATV

Estrogen receptor beta [10] = target: T3, Estrogen receptor beta; assay: blockers of SRC-3 recruitment to ERβ – biochemical, ELISA, streptavidin-HRP readout, orthogonal assay, confirmation (AID 1060)
[11] = target: T5, Carboxy-terminal domain RNA polymerase II polypeptide A small phosphatase 1 (Homo sapiens, UniProt Q9GZU7); assay: CTDSP1 inhibitors, concentration-response, biochemical, absorbance readout, ultra-high-throughput screen actives (AID 540297); format: functional
T5 sequence (Q9GZU7 whole entry): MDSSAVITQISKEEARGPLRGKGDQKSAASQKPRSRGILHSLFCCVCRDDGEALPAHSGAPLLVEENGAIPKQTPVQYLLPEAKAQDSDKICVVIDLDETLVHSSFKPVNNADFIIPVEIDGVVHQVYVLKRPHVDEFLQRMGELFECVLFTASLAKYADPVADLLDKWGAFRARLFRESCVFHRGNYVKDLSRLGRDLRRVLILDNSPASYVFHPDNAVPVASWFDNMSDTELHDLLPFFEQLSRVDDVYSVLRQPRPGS

Vero [12] = assay: mammalian cell viability reduction – secondary assay, cytotoxicity control for West Nile virus antiviral project, dose response (AID 1650); format: functional; settings: Chlorocebus sabaeus
Vero [13] = assay: cells; format: functional, cell-based; settings: Chlorocebus sabaeus
Vero [14] = assay: cells; format: functional; settings: Chlorocebus sabaeus
BJ [15] = assay: growth inhibition of engineered Ras-driven BJ cells – cell-based, alamar blue fluorescence, cherrypicked samples, dose response (AID 2631); format: functional; settings: Homo sapiens;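 also: confirmatory dose-response assay in RAS-dependent BJ fibroblasts engineered with TERT, LT and ST, with cytotoxicity read by fluorescence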
BJ [16] = assay: cells; format: functional, cell-based; settings: Homo sapiens
Vero [17] = assay: inhibition of WNV-induced cytopathic effect – cell-based, CPE readout (AID 1621); format: functional; settings: Chlorocebus sabaeus
BJ [18] = assay: BJ-TERT fibroblast viability loss – cell-based, RAS-independent, luminescence, dose response (AID 1933); format: functional; settings: Homo sapiens
BJ [19] = assay: BJ-TERT-LT-ST fibroblast viability loss – cell-based, RAS-independent, luminescence, dose response (AID 1935); format: functional; settings: Homo sapiens;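 also: BJ fibroblasts immortalized with TERT plus LT and ST oncogenes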
[20] = DRD fibroblast viability loss – cell-based, non-viral oncogenic, luminescence, dose response (AID 1934); format: functional; settings: Homo sapiens
[21] = viability of PTEN-deleted HCT116 cells – cell-based, HCT116 PTEN knockout, dose response (AID 1047); format: functional;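 also: HCT116 colon tumor cells with PTEN knocked out; cells exposed to compound for 60 hours before readout; potency for loss of cell viability measured by luminescence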
[22] = target: Muscarinic acetylcholine receptor M1 (Rattus norvegicus, UniProt P08482); assay: concentration-dependent potentiation of ACh at M1 – cell-based, calcium mobilization, CHO-K1, ACh EC20, dose response (AID 2425); format: functional
[23] = viability of HCT116 lacking mutant beta-catenin – cell-based, human colon tumor, dose response (AID 1045); format: functional;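 also: HCT116 colon tumor cells with beta catenin knocked out; cells exposed to compound for 60 hours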

T3 sequence (Q92731 whole entry): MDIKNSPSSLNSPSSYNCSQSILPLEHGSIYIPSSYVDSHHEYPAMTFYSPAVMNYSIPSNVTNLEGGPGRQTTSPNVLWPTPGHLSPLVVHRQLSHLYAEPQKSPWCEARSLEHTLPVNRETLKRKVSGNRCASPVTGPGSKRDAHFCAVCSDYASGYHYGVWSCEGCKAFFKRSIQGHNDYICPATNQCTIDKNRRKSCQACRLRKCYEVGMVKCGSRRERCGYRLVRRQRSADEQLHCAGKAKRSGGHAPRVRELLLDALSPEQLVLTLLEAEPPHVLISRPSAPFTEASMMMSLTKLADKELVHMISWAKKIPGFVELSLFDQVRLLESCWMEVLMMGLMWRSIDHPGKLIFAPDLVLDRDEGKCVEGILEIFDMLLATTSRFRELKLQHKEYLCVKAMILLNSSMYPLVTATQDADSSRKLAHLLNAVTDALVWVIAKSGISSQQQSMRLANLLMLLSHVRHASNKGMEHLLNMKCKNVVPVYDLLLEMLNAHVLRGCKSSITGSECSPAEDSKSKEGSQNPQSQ
Chain of DNA dC->dU-editing enzyme APOBEC-3A (P31941 whole entry): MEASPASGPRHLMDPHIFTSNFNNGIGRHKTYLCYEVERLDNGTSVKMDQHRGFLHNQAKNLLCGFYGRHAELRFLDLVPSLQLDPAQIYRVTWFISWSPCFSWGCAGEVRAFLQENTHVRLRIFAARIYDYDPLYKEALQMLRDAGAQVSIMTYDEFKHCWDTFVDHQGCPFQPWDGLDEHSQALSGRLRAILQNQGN
Chain of Mitogen-activated protein kinase 10 (P53779 whole entry): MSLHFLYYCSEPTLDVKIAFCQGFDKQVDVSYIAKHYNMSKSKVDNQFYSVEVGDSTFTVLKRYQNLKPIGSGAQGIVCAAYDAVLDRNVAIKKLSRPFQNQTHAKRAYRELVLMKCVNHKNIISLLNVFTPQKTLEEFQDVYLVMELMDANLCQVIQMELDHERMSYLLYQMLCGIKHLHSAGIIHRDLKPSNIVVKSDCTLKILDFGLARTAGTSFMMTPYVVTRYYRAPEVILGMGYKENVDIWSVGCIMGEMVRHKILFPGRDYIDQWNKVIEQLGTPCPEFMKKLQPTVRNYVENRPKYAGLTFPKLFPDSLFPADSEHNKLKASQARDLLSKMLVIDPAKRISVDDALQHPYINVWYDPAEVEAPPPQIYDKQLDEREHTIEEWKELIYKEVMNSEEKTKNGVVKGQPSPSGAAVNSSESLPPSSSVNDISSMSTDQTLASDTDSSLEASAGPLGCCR
Chain of E3 ubiquitin-protein ligase UHRF1 (Q96T88 whole entry, the tested form may be a part): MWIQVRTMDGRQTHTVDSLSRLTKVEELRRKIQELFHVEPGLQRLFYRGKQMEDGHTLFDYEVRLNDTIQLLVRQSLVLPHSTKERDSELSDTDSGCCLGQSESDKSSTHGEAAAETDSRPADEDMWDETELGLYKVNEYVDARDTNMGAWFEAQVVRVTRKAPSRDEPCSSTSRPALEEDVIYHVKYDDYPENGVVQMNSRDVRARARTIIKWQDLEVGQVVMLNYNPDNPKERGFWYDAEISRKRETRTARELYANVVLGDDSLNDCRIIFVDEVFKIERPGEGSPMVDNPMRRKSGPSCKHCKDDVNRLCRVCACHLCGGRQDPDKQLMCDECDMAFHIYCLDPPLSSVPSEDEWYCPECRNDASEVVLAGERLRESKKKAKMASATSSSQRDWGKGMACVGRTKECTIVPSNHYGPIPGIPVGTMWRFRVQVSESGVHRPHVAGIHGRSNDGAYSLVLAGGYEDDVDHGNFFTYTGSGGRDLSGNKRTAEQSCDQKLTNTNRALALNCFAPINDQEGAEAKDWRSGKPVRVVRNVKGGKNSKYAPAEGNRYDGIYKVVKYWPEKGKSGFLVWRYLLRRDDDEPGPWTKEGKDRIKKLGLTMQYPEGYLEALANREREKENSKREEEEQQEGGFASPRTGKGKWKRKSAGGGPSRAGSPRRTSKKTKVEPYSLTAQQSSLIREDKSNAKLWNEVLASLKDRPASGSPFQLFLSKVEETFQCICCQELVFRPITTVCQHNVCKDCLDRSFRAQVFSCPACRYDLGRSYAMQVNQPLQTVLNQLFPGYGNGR
Chain of Muscarinic acetylcholine receptor M1 (P08482 whole entry): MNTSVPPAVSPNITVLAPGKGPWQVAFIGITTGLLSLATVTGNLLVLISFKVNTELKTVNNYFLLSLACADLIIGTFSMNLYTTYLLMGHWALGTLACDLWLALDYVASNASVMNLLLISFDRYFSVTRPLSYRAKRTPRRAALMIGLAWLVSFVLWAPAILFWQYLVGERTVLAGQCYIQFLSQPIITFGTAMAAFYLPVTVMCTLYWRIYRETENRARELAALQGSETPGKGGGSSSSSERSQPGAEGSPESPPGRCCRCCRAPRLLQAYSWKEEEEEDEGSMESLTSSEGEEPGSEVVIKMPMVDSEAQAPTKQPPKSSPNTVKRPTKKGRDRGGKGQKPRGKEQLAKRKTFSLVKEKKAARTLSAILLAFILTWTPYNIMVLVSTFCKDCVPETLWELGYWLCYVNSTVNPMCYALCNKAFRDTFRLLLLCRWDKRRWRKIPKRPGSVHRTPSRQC
Chain of 14-3-3 protein gamma (P61981 whole entry, the tested form may be a part): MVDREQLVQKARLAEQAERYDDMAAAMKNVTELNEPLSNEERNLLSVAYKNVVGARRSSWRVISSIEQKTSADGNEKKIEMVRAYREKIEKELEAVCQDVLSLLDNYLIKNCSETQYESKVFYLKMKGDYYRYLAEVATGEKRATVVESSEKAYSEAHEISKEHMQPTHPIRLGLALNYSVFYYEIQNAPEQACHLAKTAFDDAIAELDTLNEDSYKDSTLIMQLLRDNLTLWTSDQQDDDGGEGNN
Chain of DNA dC->dU-editing enzyme APOBEC-3G (Q9HC16 whole entry): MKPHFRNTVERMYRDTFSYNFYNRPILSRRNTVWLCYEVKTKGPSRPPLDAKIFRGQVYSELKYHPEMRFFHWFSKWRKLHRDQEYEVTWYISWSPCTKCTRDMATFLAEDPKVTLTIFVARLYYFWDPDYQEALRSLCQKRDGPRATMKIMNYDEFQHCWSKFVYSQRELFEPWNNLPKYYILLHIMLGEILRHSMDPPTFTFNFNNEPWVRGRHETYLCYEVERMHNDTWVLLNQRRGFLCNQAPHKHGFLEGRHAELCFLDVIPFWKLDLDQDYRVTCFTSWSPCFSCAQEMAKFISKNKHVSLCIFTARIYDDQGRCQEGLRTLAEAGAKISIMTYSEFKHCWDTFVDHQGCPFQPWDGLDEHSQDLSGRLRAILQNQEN

In the case of `OCCCc1nc2n(n1)C(c1cccs1)C=C(c1ccccc1)N2` (configuration not stated), the IC50 (Bcl-2-related protein A1 [1]) is reported as > 100 µM (not active) and the IC50 (Bcl-2-related protein A1 [2]) is reported as > 100 µM (not active).

For `CC1=CC(=C2C(=O)c3ccccc3C2=O)C=C(C)N1C`, the IC50 [3] was 42.1 µM (not active), the EC50 (H4) was 57.2 µM (active) and the EC50 [4] was 29.3 µM (active). For the same compound, the EC50 [5] was 53.3 µM (active).

For `Cc1nc2ccc(C(=O)O)cc2c2c1CC(C)S2` (configuration not stated), the IC50 [6] was 16.2 µM (active), the IC50 [7] was 26.3 µM (active) and the IC50 (Bcl-2-like protein 10) was > 100 µM (inactive). For the same compound, the IC50 (14-3-3 protein gamma) was 25.7 µM (active).

In the case of `O=C(Cc1coc2cc3c(cc12)CCC3)OCc1cc(=O)n2c(n1)sc1ccccc12`, the IC50 [8] is reported as > 43.8 µM (inactive), the IC50 (Estrogen receptor beta [9]) is reported as 3.05 µM (active) and the IC50 (Estrogen receptor) is reported as 4.83 µM (active). For the same compound, the IC50 (Estrogen receptor beta [10]) was 17.6 µM (not active) and the IC50 [11] was 4.58 µM (active).

In the case of `Cc1ccc(NC(=O)[C@H](Cc2c[nH]c3ccccc23)NC(=O)[C@@H]2Cc3ccccc3CN2)c(C)c1`, the CC50 (Vero [12]) is reported as 12.5 µM (active), the IC50 (Vero [13]) is reported as 1.91 µM (active) and the CC50 (Vero [14]) is reported as 15.9 µM (active). For the same compound, the EC50 (BJ [15]) was > 133 µM (inactive), the EC50 (BJ [16]) was 20.7 µM (active) and the IC50 (Vero [17]) was 43.3 µM (active). The EC50 (BJ [18]) was 21.1 µM (active), the EC50 (BJ [19]) was > 150 µM (not active) and the EC50 [20] was 112 µM (inconclusive).

For `Cc1cc(NC(=O)CS(=O)(=O)c2cn(Cc3ccccc3Cl)c3ccccc23)no1`, the EC50 [21] was 41.3 µM (active), the EC50 [22] was 9.13 µM (active) and the EC50 [23] was 72.8 µM (active).
